# Reference: patent US10759796B2, “CXCR4 inhibitors and uses thereof” (X4 Pharmaceuticals, Inc., priority 2016, dated 2020)
# Where two headings read alike, the source gives them in different places.
# Experiments:
# [1] = molecular target: CXCR-4 transfected U87 cell line (U87.CXCR4) (Homo sapiens (Human), UniProt P61073); experiment: Intracellular CXCL-12-induced calcium mobilization assay (FLIPR); assay type: cell-based; conditions: U87.CXCR4 cells, CXCL-12 25-50 ng/mL; read-out: IC50 CXCL-12 Ca2+ flux U87.CXCR4+
# Chain of CXCR-4 transfected U87 cell line (U87.CXCR4) (P61073 whole entry): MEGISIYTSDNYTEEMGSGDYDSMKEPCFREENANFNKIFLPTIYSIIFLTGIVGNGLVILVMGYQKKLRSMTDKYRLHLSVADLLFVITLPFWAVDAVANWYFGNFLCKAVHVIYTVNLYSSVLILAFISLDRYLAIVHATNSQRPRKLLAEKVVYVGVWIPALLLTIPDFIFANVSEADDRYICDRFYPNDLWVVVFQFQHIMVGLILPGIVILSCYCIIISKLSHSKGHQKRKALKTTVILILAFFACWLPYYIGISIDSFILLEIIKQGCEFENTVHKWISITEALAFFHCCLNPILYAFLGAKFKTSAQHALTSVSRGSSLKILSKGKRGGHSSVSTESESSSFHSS
# Outline: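 U87.CXCR4 cells were seeded at 20,000 per well, cultured 12 hours, then loaded with 4 μM Fluo-2 AM for 45 min at 37° C. in HBSS with 20 mM HEPES and 0.2% BSA, pH 7.4. Calcium flux triggered by CXCL-12 (25-50 ng/mL) was tracked over time by FLIPR fluorescence at 37° C.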
# [2] = Fraction of drug unbound to brain proteins, mouse; assay type: in vitro ADME; conditions: Mouse brain proteins (Table 10); read-out: Fu (b) %
# [3] = Fraction of drug unbound to plasma proteins, mouse; assay type: in vitro ADME; conditions: Mouse plasma proteins (Table 10); read-out: Fu (p) %
# [4] = Mouse brain uptake assay, 0-24 h, 4 time points; assay type: in vivo; conditions: male, 3 mg/kg IV, 4 time points; for Kp / Kp uu: CD1, brain and plasma; for Kp / Kp uu / clearance / half-life: Mouse; for clearance / half-life: CD1, plasma; for half-life: read-out: t½ (converted)
# Description: The study design (9 animals) consisted of administrating the drug (IV: 3 mg/kg (5 mL/kg) via tail vein injection) and collecting samples at terminal bleeding for plasma and brain at 0.083, 0.5 and 1 h. The blood collection was performed as follows: the animal was restrained manually and approximately 150 μL blood/time point was collected into a dipotassium EDTA tube via retro orbital puncture under anesthesia with isoflurane. The blood sample was put on ice and centrifuged to obtain a plasma sample (2000 g, 5 min under 4° C.) within 15 minutes. The brain collection was performed as follows: a mid-line incision was made in the animal's scalp and the skin was retracted. Using small bone cutters and rongeurs, the skull overlying the brain was removed. The brain was removed using a spatula and the brain rinsed with cold saline. The brain was placed in screw-top tubes, and the tubes were stored at −70° C. until analysis. The IV dosing solution was prepared in 50 mM citrate buffer (pH 4.0) at 0.6 mg/mL.
# An aliquot of 30 μL sample was added to 150 μL MeCN containing 50 ng/mL IS (Dexamethasone). The mixture was vortexed for 5 min and centrifuged at 14,000 rpm for 5 min. An aliquot of 5 μL supernatant was injected for LC-MS/MS analysis.
# An aliquot of 30 μL brain homogenate (brain:PBS=1:3, w/v) sample was added to 150 μL IS in ACN (Dexamethasone, 50 ng/mL). The mixture was vortexed for 5 min and centrifuged at 14,000 rpm for 5 min. An aliquot of 5 μL supernatant was injected for LC-MS/MS analysis.
# The sample analysis was performed on LCMS/MS-003 (API4000, triple quadruple) under the following conditions: positive ion, ESI, MRM detection using dexamethasone as internal standard. HPLC conditions: mobile phase A: H2O (0.025% formic acid (FA) with 1 mM NH4OAc); mobile phase B: MeOH (0.025% FA with 1 mM NH4OAc) on Waters X-Bridge C18 (2.1×50 mm, 2.5 μm) column at 60° C.
# A similar experiment was performed with 4 time points taken from 0-24 h.
# in vitro = conditions: human, Caco-2, pH 7.4
# Outline: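 Compounds at 10 μM in HBSS pH 7.4 (0.1–0.3% DMSO) were dosed on Caco-2 monolayers, apical-to-basolateral and basolateral-to-apical, for 90 min at 37 °C, in duplicate. Monolayer integrity was checked by TEER and lucifer yellow flux, read by fluorescence at 485/535 nm. Compound was quantified by LC-MS/MS and Papp calculated.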
# [5] = molecular target: Jurkat cells expressing CXCR4 (Homo sapiens (Human), UniProt P61073); experiment: Chemokine (CXCL12-AF647) binding inhibition assay; conditions: CXCL12-AF647 25 ng/mL, read-out: IC50 CXCL-12 binding Jurkat
# Chain of Jurkat cells expressing CXCR4 (P61073 whole entry): as above
# Outline: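 Cells in HBSS, 20 mM HEPES, 0.2% BSA, pH 7.4, preincubated 15 min at room temperature with compound, then 25 ng/mL CXCL12-AF647 for 30 min. After washing and paraformaldehyde fixation, bound ligand read by flow cytometry; percent inhibition calculated from MFI relative to unlabeled and ligand-only controls.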
# [6] = CD1, Mouse brain, read-out: AUClast (b)
# [7] = CD1, Mouse plasma, read-out: AUClast (p)
IC50 [1] [nM],fraction unbound [2],fraction unbound [3],"AUC(0-t) [4, 6] [ng·h/mL]","AUC(0-t) [4, 7] [ng·h/mL]",Kp [4],Kp uu [4],clearance [4] [mL/min/kg],half-life [4] [h],"Papp A→B at 90 min, 10 μM (in vitro) [×10⁻⁶ cm/s]","Papp B→A at 90 min, 10 μM (in vitro) [×10⁻⁶ cm/s]","efflux ratio at 90 min, 10 μM (in vitro)",IC50 [5] [nM],Structure (SMILES)
0.01 to 100,0.004,0.047,13700,2130,6.41,0.54,22,6.42,10 to 30,10 to 30,0.1 to 10,0.01 to 100,Cc1c([C@@H]2CCC[C@H](c3ncccc3Cl)N2)nc2cccc(N3CCN(C)CC3)n12 (stereo in doubt) [Compound I-193]
0.01 to 100,0.005,0.026,26900,1400,19.2,3.68,35.3,3.96,0.1 to 10,0.1 to 10,0.1 to 10,0.01 to 100,CN1CCN(c2cccc3nc([C@H]4CCC[C@@H](c5ncccc5Cl)N4C)c(Cl)n23)CC1 [Compound I-115]
0.01 to 100,0.006,0.039,32300,1480,21.8,3.35,33.5,3.56,10 to 30,10 to 30,0.1 to 10,0.01 to 100,CCOCc1c([C@H]2CCC[C@@H](c3ncccc3Cl)N2C)nc2cccc(N3CCN(C)CC3)n12 [Compound I-117]
